Experimental data taken from patent US11059784B2, “Oxime ether compounds” (BRISTOL-MYERS SQUIBB COMPANY, priority 2017, dated 2021).

What was measured:
[1] = molecular target: T1, S1P1 (Homo sapiens (Human), UniProt P21453); experiment: Receptor [35S] GTPγS Binding Assay, S1P1; type: biochemical; settings: membranes from S1P1/CHO cells
Experimental: (§1) Receptor [^35S] GTPγS Binding Assays:
(§2) Compounds were loaded in a 384 Falcon v-bottom plate (0.5 μl/well in an 11 point, 3-fold dilution). Membranes prepared from S1P1/CHO cells or EDG3-Gal5-bla HEK293T cells (EDG3 equivalent S1P3) were added to the compound plate ([…], final protein 3 μg/well) with MULTIDROP®. [^35S]GTP (1250 Ci/mmol, Perkin Elmer) was diluted in assay buffer: 20 mM HEPES, pH7.5, 10 mM MgCl2, 150 mM NaCl, 1 mM EGTA (ethylene glycol tetraacetic acid), 1 mM DTT (Dithiothreitol), 10 μM GDP, 0.1% fatty acid free BSA, and 10 μg/ml Saponin to 0.4 nM. 40 μl of the [35S] GTP solution was added to the compound plate with a final concentration of 0.2 nM. The reaction was kept at room temperature for 45 min. At the end of incubation, all the mixtures in the compound plate were transferred to Millipore 384-well FB filter plates via the VELOCITY11 ® Vprep liquid handler. The filter plate was washed with water 4 times by using the manifold Embla plate washer and dried at 60° C. for 45 min. MicroScint 20 scintillation fluid (30 μl) was added to each well for counting on the Packard TOPCOUNT®. EC50 is defined as the agonist concentration that corresponds to 50% of the Ymax (maximal response) obtained for each individual compound tested.
A smaller value for GTPγS S1P1 EC50 value indicated greater activity for the compound in the GTPγS S1P1 binding assay. Thus the compounds of the present invention may be used in treating, preventing, or curing various S1P1 receptor-related conditions. The compounds have potential use in treating, preventing, or curing autoimmune and inflammatory diseases such as multiple sclerosis, rheumatoid arthritis, inflammatory bowel disease, lupus, psoriasis, or minimizing or reducing rejection of transplanted organs.

[2] = molecular target: T1, S1P1; experiment: S1P1 Binding Assay (33P-S1P ligand competition, CHO membranes); settings: membranes from CHO cells expressing human S1P1
Experimental: Membranes were prepared from CHO cells expressing human S1P1. Cells pellets (1×10^9 cells/pellet) were suspended in buffer containing 20 mM HEPES (4-(2-hydroxyethyl)-1-piperazineethanesulfonic acid), pH 7.5, 50 mM NaCl, 2 mM EDTA (ethylenediamine tetraacetic acid) and Protease Inhibitor cocktail (Roche), and disrupted on ice using the Polytron homogenizer. The homogenate was centrifuged at 20,000 rpm (48,000 g) and the supernatant was discarded. The membrane pellets were resuspended in buffer containing 50 mM HEPES, pH 7.5, 100 mM NaCl, 1 mM MgCl2, 2 mM EDTA and stored in aliquots at −80° C. after protein concentration determination.
Membranes (2 μg/well) and 0.03 nM final concentration of ^33P-S1P ligand (1 mCi/ml, Perkin Elmer or American Radiolabeled Chemicals) diluted in assay buffer (50 mM HEPES, pH7.4, 5 mM MgCl2, 1 mM CaCl2), 0.5% fatty acid free BSA (bovine serum albumin), 1 mM NaF) were added to the compound plates (384 Falcon v-bottom plate (0.5 μl/well in a 11 point, 3-fold dilution). Binding was performed for 45 minutes at room temperature, terminated by collecting the membranes onto 384-well Millipore FB filter plates, and radioactivity was measured by TOPCOUNT®. The competition data of the test compounds over a range of concentrations was plotted as percentage inhibition of radioligand specific binding. The IC50 is defined as the concentration of competing ligand needed to reduce specific binding by 50%.

[3] = molecular target: S1P3 (Homo sapiens (Human), UniProt Q99500); experiment: Receptor [35S] GTPγS Binding Assay, S1P3; type: biochemical; settings: membranes from EDG3-Gal5-bla HEK293T cells
Experimental: as §1, §2

S1P3, sequence (Q99500 whole entry): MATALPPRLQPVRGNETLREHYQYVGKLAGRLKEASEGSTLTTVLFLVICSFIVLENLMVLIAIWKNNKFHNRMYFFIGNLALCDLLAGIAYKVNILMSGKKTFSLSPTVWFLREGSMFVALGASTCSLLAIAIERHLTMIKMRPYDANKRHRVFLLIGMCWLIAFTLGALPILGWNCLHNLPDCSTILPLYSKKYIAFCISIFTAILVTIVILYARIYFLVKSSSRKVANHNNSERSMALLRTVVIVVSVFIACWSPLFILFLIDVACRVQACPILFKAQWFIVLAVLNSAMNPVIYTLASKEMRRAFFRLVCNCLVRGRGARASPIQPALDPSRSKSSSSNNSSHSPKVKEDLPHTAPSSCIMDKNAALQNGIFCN
T1 sequence (P21453 whole entry): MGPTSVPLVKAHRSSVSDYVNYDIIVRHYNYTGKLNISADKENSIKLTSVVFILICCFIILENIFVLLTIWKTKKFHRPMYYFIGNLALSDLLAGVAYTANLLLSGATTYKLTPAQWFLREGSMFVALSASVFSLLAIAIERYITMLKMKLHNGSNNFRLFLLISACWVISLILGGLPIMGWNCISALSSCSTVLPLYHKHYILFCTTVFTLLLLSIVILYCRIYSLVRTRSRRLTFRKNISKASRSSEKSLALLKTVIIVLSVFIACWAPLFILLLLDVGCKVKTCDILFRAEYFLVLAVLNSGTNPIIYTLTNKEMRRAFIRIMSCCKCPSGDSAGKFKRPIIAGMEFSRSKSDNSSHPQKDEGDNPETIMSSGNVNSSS

SMILES: C/C(=N\OCc1ccc(C2CCCCC2)c(C(F)(F)F)c1)c1ccc(C(=O)N2CCC(N)(COP(=O)(O)O)C2)cc1 (single isomer, unassigned) [Example 59, (E)-(3-amino-1-(4-(1-(((4-cyclohexyl-3-(trifluoromethyl)benzyl)oxy)imino)ethyl)benzoyl)pyrrolidin-3-yl)methyl dihydrogen phosphate]
- EC50 [1]: 0.136 µM
- IC50 [2]: 0.0105 µM
- EC50 [3]: > 3.13 µM

SMILES: C/C(=N\OCc1ccc(C2CCCCC2)c(C(F)(F)F)c1)c1ccc(C(=O)N2CCC(N)(COP(=O)(O)O)C2)cc1 (single isomer, unassigned) [Example 60, (E)-(3-amino-1-(4-(1-(((4-cyclohexyl-3-(trifluoromethyl)benzyl)oxy)imino)ethyl)benzoyl)pyrrolidin-3-yl)methyl dihydrogen phosphate]
- EC50 [1]: 0.434 µM
- IC50 [2]: 0.0284 µM
- EC50 [3]: > 6.25 µM

SMILES: C/C(=N\OCCCc1ccccc1)c1ccc(C(=O)N2CCC(N)(COP(=O)(O)O)C2)cc1 (single isomer, unassigned) [Example 61, (E)-(3-amino-1-(4-(1-((3-phenylpropoxy)imino)ethyl)benzoyl)pyrrolidin-3-yl)methyl dihydrogen phosphate]
- EC50 [1]: 0.204 µM
- IC50 [2]: 0.126 µM
- EC50 [3]: > 6.25 µM

SMILES: C/C(=N\OCCCc1ccccc1)c1ccc(C(=O)N2CCC(N)(COP(=O)(O)O)C2)cc1 (single isomer, unassigned) [Example 62, (E)-(3-amino-1-(4-(1-((3-phenylpropoxy)imino)ethyl)benzoyl)pyrrolidin-3-yl)methyl dihydrogen phosphate]
- EC50 [1]: 0.504 µM
- IC50 [2]: 1.47 µM
- EC50 [3]: > 6.25 µM

SMILES: C/C(=N\OCCCc1ccccc1)c1ccc(C(=O)N2CCCC(N)(COP(=O)(O)O)C2)cc1 (single isomer, unassigned) [Example 69, (E)-(3-amino-1-(4-(1-((3-phenylpropoxy)imino)ethyl)benzoyl)piperidin-3-yl)methyl dihydrogen phosphate]
- EC50 [1]: 0.767 µM
- IC50 [2]: 0.899 µM

SMILES: CC(=NOCc1ccccc1)c1ccc([C@@H]2CC[C@](N)(COP(=O)(O)O)C2)cc1 [Example 39, ((1R,3R)-1-amino-3-(4-(1-((benzyloxy)imino)ethyl)phenyl)cyclopentyl)methyl dihydrogen phosphate]
- IC50 [2]: 0.865 µM

SMILES: CC(=NOCc1ccc([N+](=O)[O-])cc1)c1ccc([C@@H]2CC[C@](N)(COP(=O)(O)O)C2)cc1 [Example 42, ((1R,3R)-1-amino-3-(4-(1-(((4-nitrobenzyl)oxy)imino)ethyl)phenyl)cyclopentyl) methyl dihydrogen phosphate]
- EC50 [1]: 0.0176 µM
- EC50 [3]: > 30 µM

SMILES: CC(=NOCc1ccc(F)cc1)c1ccc([C@@H]2CC[C@](N)(COP(=O)(O)O)C2)cc1 [Example 43, ((1R,3R)-1-amino-3-(4-(1-(((4-fluorobenzyl)oxy)imino)ethyl)phenyl)cyclopentyl) methyl dihydrogen phosphate]
- EC50 [1]: 0.0264 µM
- EC50 [3]: > 30 µM

SMILES: COc1cccc(/C(C)=N/OCc2ccc([C@H]3CC[C@](N)(COP(=O)(O)O)C3)cc2)c1 [Example 54, ((1R,3S)-1-amino-3-(4-(((((E)-1-(3-methoxyphenyl)ethylidene)amino)oxy)methyl)phenyl)cyclopentyl) methyl dihydrogen phosphate]
- IC50 [2]: 0.0142 µM

SMILES: CC(=NOCCc1ccccc1)c1ccc(C(=O)N2CCC(N)(COP(=O)(O)O)C2)cc1 (stereo not drawn) [Example 55, (3-amino-1-(4-(1-(phenethoxyimino)ethyl)benzoyl)pyrrolidin-3-yl)methyl Dihydrogen Phosphate]
- EC50 [1]: 1.56 µM
- EC50 [3]: > 60 µM

SMILES: C/C(=N\OCCc1ccccc1)c1ccc(C(=O)N2CCC(N)(COP(=O)(O)O)CC2)cc1 [Example 56, (4-amino-1-(4-(1-(phenethoxyimino)ethyl)benzoyl)piperidin-4-yl)methyl dihydrogen phosphate]
- EC50 [1]: 0.295 µM
- EC50 [3]: > 60 µM
